Reference: patent publication US20250367240A1, “DERIVATION OF GLUCOSE-RESPONSIVE INSULIN-SECRETING CELLS AND ORGANOIDS FROM HUMAN STOMACH CELLS AND THEIR USE TO TREAT DIABETES” (CORNELL UNIVERSITY, priority 2022, published 2025)
“Also recorded” adds a separate entry of the source.

Tests used:
Format in all cases: cell-based, human
Ngn3ER/PM-hGSCs = experiment: Supplement screen to formulate serum-free medium for GINS differentiation; conditions: day-7 post differentiation; for INS mRNA levels: single supplement in serum-free basal medium
Method: Ngn3ER/PM-hGSCs were seeded 5 days prior to differentiation in 96-well plate. To start differentiation, 1 μM 4-OH-TAM was added and incubated for 2 days. The culture medium was then changed to serum-free basal medium with one supplement and Doxycycline to activate Pdx1-Mafa expression. The basal serum-free medium for screens was prepared as follows: advanced DMEM/F12 (Thermo Fisher Scientific, 12634010) was supplemented with 10 mM HEPES (Thermo Fisher Scientific, 15-630-080), 1× GlutaMAX (Thermo Fisher Scientific, 35050061), 1× B-27 (Themo Fisher Scientific, 17504044), 1× N-2 (Thermo Fisher Scientific, 17502048), 25 μM Primocin, and 500 μM N-Acetyl-L-Cysteine (NAC) (Sigma-Aldrich, A9165). Seven days after supplement treatment, the following were (1) spontaneous clustering of nascent GINS cells by live imaging of mCherry^+ cells, and (2) qPCR of INS mRNA levels. Then multiple b-cell markers with qPCR on samples treated with Nicotinamide, Y-27632 and A8301 were analyzed.

GINS organoids [1] = experiment: Static glucose-stimulated insulin secretion (GSIS); conditions: day-18 organoids donor #6; 10 nM glibenclamide or 0.5 mM diazoxide
Method: Ten to twenty GINS organoids were sampled for each group. Organoids were washed with RPMI-1640 no nutrient medium (RPMIN, MyBioSource, MBS652918), and equilibrated in 3.3 mM glucose RPMIN for 2 hours. Organoids were incubated in low-glucose RPMIN for 1 hour, and supernatant was collected. Organoids were then incubated in high-glucose RPMIN for 1 hour, and supernatant was collected. For sequential glucose challenge, organoids were washed 2 times in RPMIN prior to the next stimulation. Secreted insulin was measured using the Stellux Chemi Human Insulin ELISA (ALPCO Diagnostics, 80-INSHU-CH10).

GINS organoids [2] = experiment: Dynamic GSIS with perifusion; conditions: day-21 organoids, two donors; 100 ng/mL Liraglutide in 20 mM glucose; 30 mM KCl in 2 mM glucose
Method: Twenty GINS organoids were sampled for each group. Organoids were washed with RPMIN and equilibrated in 1 mM glucose RPMIN for 2 hours at 37° C. incubator. The assay was performed in RPMIN on a temperature-controlled (37° C.) perifusion system (Biorep Technologies). Organoids were loaded in chambers and perfused at a flow rate of 100 μL/min in the following steps: (1) 48 min in 1 mM glucose, (2) 24 min in 2 mM glucose. (3) 36 min in 20 mM glucose, (4) 24 min in 20 mM glucose with 100 ng/mL Liraglutide (Cayman, 24727), (5) 48 min in 2 mM glucose, (6) 20 min in 2 mM glucose with 30 mM KCl. Secreted insulin was measured using the Stellux Chemi Human Insulin ELISA.

What does the source list for `Cc1cccc(-c2nn(C(=S)Nc3ccccc3)cc2-c2ccnc3ccccc23)n1` [A8301, 3-(6-methyl-2-pyridinyl)-N-phenyl-4-(4-quinolinyl)-1H-pyrazole-1-carbothioamide]?
spontaneous aggregation (clustering) of nascent GINS cells (Ngn3ER/PM-hGSCs; mCherry live imaging): stimulated; also recorded: most observable clustering effect; expression of several key b-cell transcription factors (Ngn3ER/PM-hGSCs; qPCR, vs no supplement control): stimulated

For `CC1=NS(=O)(=O)c2cc(Cl)ccc2N1` [Diazoxide], which “insulin secretion response of GINS organoids to the drug” value (GINS organoids [1]) is on record?
The value was “responded”.

For `COc1ccc(Cl)cc1C(=O)NCCc1ccc(S(=O)(=O)NC(=O)NC2CCCCC2)cc1` [Glibenclamide], which “insulin secretion response of GINS organoids to the drug” value (GINS organoids [1]) is on record?
Its value is “responded”.

`[Cl-].[K+]` [KCl] was tested. Which “insulin secretion response of GINS cells to the agent, dynamic GSIS” value (GINS organoids [2]) did it give?
The value was “responded robustly”.

With `NC(=O)c1cccnc1` [Nicotinamide, 3-pyridinecarboxamide] as the molecule, how does the “INS mRNA levels” value (Ngn3ER/PM-hGSCs; vs no supplement control) read?
The value was “significantly promoted; also recorded: significantly up-regulated”.

Which “INS mRNA levels” value (Ngn3ER/PM-hGSCs; vs no supplement control, dihydrochloride) does the source give for `C[C@@H](N)[C@H]1CC[C@H](C(=O)Nc2ccncc2)CC1.Cl.Cl` [Y-27632, trans-4-[(1R)-1-aminoethyl]-N-4-pyridinyl-Cyclohexanecarboxamide, dihydrochloride] here?
Its value is “significantly promoted; also recorded: significantly up-regulated”.
